Values after ≈ are worked out from the molar mass of the structure shown.
Experiments:
[1] = system: benthic aquatic macroinvertebrates; test: Toximeter locomotor index monitoring of benthic aquatic macroinvertebrates during contamination episodes; assay type: in vivo, Gammarus fossarum, Erpobdella testacea, Radix auricularia; settings: 100 μg·L^−1, contamination episodes of 20-24 h, even after several episodes; FIG. 3
Experimental: For the purposes of the present invention, “locomotor index” corresponds to an average distance calculated according to the study context (field or laboratory) over the 10% to 80% of the lowest values of individual distances travelled. The locomotor index is the average of these shortest distances. This locomotor index is calculated on an integration time step that can be chosen between 2 and 120 minutes. The values of distances travelled are squared before the index is calculated, so the locomotive index is expressed in mm^2/unit of time.
In the examples, only benthic aquatic macroinvertebrates calibrated in terms of size, sex, non-parasitized, from a single population and housing for two weeks in the laboratory are shown. The benthic aquatic macroinvertebrates are placed in a cage under camera monitoring where 16 individuals are placed alone in a volume of 50 mL of water.
The cage is made of neutral materials (polypropylene) and without the use of toxic products (no glue). These cages (FIG. 1) are connected to a pre-bubbled, thermo-regulated and filtered liquid supply and then circulate in the chamber that receives the effluent at a flow rate of 6 L/h. […]

[2] = system: Daphnia; settings: after 48 h exposure; cited from earlier work

CNC(=O)ON=C(C)SC [methomyl]
time to detect a toxicity of the product (locomotor index) [1]: ≤ 3 h
LC50 in Daphnia [2]: 0.028 µg/mL (≈ 0.173 µM)
